Where two headings read alike, the source gives them in different places.
How the values were obtained:
human DGKα [1] = biological target: T1, human DGKα (Homo sapiens (Human), UniProt P23743); assay: DGKα LIPGLO assay (extruded liposome substrate); format: biochemical
Method in brief: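 Human full-length DGKα, His-tagged and produced in Sf9 cells, assayed at 20 nM (4× stock) on extruded liposomes of PS, 0.25 mM DAG and 2.75 mM PC, preincubated 10 min. Reaction started with 300 μM ATP (stock) and ran 1 h in MOPS pH 7.5/MgCl2/CaCl2/DTT buffer.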

human DGKζ [2] = biological target: T2, human DGKζ (Homo sapiens (Human), UniProt Q13574); assay: DGKζ LIPGLO assay (extruded liposome substrate); format: biochemical; details: extruded liposome substrate; read-out: DGKζ LIPGLO IC50
Method in brief: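 Sf9-derived DGKζ was premixed 10 min with PC/DAG/PS liposomes (100 nm extruded) in MOPS pH 7.5 buffer containing NaCl, MgCl2, CaCl2 and DTT.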

human DGKα [3] = biological target: T1, human DGKα; assay: biochemical
Method in brief: (§1)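 Enzymes were baculovirus/Sf9 full-length human DGKα or DGKζ with His tag. The substrate was PS/DAG in octyl glucoside micelles, in MOPS pH 7.5 buffer with NaCl, MgCl2, CaCl2 and DTT.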

human DGKζ [4] = biological target: T2, human DGKζ; assay: DGKζ assay (detergent/lipid micelle substrate); format: biochemical; details: detergent/lipid micelle substrate; read-out: DGKζ IC50
Method in brief: as §1

[5] = tested on: pre-activated CD4 T cells and Raji cells; assay: Raji CD4 T Cell IL2 Assay; format: cell-based
[6] = detergent/lipid micelle substrate, read-out: DGKα IC50

T2 sequence (Q13574 other isoform, or with tags, fused parts or gaps): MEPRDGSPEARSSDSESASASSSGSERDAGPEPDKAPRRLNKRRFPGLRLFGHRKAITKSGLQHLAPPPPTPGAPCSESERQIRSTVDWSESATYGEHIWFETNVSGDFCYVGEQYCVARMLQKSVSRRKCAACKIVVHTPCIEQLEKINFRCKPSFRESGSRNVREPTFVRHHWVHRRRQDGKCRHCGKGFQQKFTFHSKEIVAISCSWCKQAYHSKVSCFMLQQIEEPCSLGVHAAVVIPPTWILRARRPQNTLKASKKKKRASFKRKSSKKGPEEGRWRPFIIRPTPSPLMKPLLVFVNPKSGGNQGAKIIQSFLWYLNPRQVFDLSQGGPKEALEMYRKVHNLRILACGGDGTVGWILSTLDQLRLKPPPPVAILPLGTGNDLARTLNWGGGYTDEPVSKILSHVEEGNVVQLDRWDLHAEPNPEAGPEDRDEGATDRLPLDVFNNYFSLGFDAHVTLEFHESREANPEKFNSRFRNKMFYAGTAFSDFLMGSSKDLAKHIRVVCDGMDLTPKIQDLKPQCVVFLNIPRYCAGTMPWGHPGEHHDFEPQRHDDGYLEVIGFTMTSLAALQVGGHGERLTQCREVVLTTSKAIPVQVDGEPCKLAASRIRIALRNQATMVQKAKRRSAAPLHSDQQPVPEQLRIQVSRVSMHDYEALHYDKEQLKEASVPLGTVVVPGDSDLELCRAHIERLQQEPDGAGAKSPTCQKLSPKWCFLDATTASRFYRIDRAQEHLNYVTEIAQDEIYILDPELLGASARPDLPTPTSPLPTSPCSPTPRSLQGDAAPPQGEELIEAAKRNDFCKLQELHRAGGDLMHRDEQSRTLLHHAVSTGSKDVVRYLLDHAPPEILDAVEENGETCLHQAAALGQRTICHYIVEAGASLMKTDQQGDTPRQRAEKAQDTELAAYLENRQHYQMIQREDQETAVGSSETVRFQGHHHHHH
T1 sequence (P23743 other isoform, or with tags, fused parts or gaps): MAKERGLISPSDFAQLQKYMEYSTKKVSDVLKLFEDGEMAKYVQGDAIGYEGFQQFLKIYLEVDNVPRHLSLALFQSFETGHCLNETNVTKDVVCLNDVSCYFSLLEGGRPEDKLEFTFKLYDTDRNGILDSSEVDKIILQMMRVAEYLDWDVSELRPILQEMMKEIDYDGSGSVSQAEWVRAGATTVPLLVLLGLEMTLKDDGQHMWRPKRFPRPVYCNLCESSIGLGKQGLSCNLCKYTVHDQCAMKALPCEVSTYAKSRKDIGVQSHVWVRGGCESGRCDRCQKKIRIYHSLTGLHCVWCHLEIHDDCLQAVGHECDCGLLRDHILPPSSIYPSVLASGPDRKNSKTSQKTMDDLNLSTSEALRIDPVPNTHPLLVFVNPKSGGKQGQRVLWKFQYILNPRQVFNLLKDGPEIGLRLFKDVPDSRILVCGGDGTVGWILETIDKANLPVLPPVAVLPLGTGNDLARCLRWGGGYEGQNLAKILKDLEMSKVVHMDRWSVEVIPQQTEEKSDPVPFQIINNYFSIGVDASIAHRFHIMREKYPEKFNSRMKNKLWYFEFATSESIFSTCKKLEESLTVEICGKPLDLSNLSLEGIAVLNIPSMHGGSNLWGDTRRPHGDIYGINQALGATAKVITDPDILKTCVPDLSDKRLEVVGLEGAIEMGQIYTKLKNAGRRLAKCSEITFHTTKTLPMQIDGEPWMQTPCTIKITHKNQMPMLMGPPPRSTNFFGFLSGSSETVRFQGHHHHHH

Compound Cn1c(=O)c([N+](=O)[O-])c(N2CCN(C(c3ccc(F)cc3)C3CC3)CC2)c2nc(C#N)ccc21 (single isomer, unassigned) [Example 51, 8-(4-(cyclopropyl(4-fluorophenyl)methyl)piperazin-1-yl)-5-methyl-7-nitro-6-oxo-5,6-dihydro-1,5-naphthyridine-2-carbonitrile] has an IC50 (human DGKα [1]) of 330 nM, an IC50 (human DGKζ [2]) of 4.7 µM and an IC50 (human DGKα [3]; DGKα IC50, detergent/lipid micelle substrate) of 180 nM. It also gave an IC50 (human DGKζ [4]) of 56 µM and an IC50 [5] of 5.2 nM.
Work on C#CCn1c(=O)c(C#N)c(N2CCN(Cc3ccc(F)cc3O)CC2)c2nc(Br)ccc21 [Example 67, 6-bromo-4-(4-(4-fluoro-2-hydroxybenzyl)piperazin-1-yl)-2-oxo-1-(prop-2-yn-1-vi)-1,2-dihydro-1,5-naphthyridine-3-carbonitrile] yielded an IC50 (human DGKα [1]) of 4800 nM, an IC50 (human DGKζ [2]) of 12 µM and an IC50 (human DGKα [3]; [6]) of 130 nM. The IC50 (human DGKζ [4]) was 13 µM and the IC50 ([5]; Homo sapiens, Raji) was 6.6 nM.
Cn1c(=O)c(C#N)c(N2CCN(Cc3cc(O)cc(F)c3)CC2)c2nc(Cl)ccc21 [Example 338, 6-chloro-4-{4-[(3-fluoro-5-hydroxyphenyl)methyl]piperazin-1-yl}-1-methyl-2-oxo-1,2-dihydro-1,5-naphthyridine-3-carbonitrile] was tested, and the IC50 (human DGKα [1]) was 5100 nM, the IC50 (human DGKζ [2]) was 66 µM and the IC50 (human DGKα [3]; [6]) was 1100 nM. For the same compound, the IC50 (human DGKζ [4]) was > 240 µM and the IC50 ([5]; Homo sapiens, Raji) was 580 nM.
CC(c1ccc(F)cc1)N1CCN(c2c(C#N)c(=O)n(C)c3ccc(Br)nc23)CC1 (single isomer, unassigned) [Example 23, 6-bromo-4-{4-[1-(4-fluorophenyl)ethyl]piperazin-1-yl}-1-methyl-2-oxo-1,2-dihydro-1,5-naphthyridine-3-carbonitrile] gave an IC50 (human DGKα [1]) of 1900 nM, an IC50 (human DGKζ [2]) of 13 µM and an IC50 (human DGKα [3]; [6]) of 610 nM. The IC50 (human DGKζ [4]) was > 240 µM and the IC50 [5] was 41 nM.
For Cn1c(=O)c(C#N)c(N2CCN(Cc3c(O)cccc3Br)CC2)c2nc(Cl)ccc21 [Example 258, 4-{4-[(2-bromo-6-hydroxyphenyl)methyl]piperazin-1-yl}-6-chloro-1-methyl-2-oxo-1,2-dihydro-1,5-naphthyridine-3-carbonitrile], the IC50 (human DGKα [1]) was 1600 nM, the IC50 (human DGKζ [2]) was 5.3 µM and the IC50 (human DGKα [3]; [6]) was 430 nM. For the same compound, the IC50 (human DGKζ [4]) was 26 µM and the IC50 ([5]; Homo sapiens, Raji) was 5.3 nM.
For Cn1c(=O)c(C#N)c(N2CCN(Cc3ccc(F)cc3O)CC2)c2nc(Br)ccc21 [Example 192, 6-bromo-4-(4-(4-fluoro-2-hydroxybenzyl)piperazin-1-yl)-1-methyl-2-oxo-1,2-dihydro-1,5-naphthyridine-3-carbonitrile], the IC50 (human DGKα [1]) was 48 nM, the IC50 (human DGKζ [2]) was 8.1 µM and the IC50 (human DGKα [3]; [6]) was 84 nM. For the same compound, the IC50 (human DGKζ [4]) was > 240 µM and the IC50 ([5]; Homo sapiens, Raji) was 200 nM.
Cn1c(=O)c(C(=O)C(F)(F)F)c(N2CCN(C(c3ccc(F)cc3)c3ccc(F)cc3)CC2)c2ncccc21 [Example 227, 4-(4-(bis(4-fluorophenyl)methyl)piperazin-1-yl)-1-methyl-3-(2,2,2-trifluoroacetyl)-1,5-naphthyridin-2(1H)-one] was tested, and the IC50 (human DGKα [1]) was 230000 nM, the IC50 (human DGKζ [2]) was 11 µM and the IC50 (human DGKα [3]; [6]) was > 240000 nM. For the same compound, the IC50 (human DGKζ [4]) was > 240 µM and the IC50 ([5]; Homo sapiens, Raji) was 1500 nM.
COc1c(F)cccc1CN1CCN(c2c(C#N)c(=O)n(C)c3ccc(Cl)nc23)CC1 [Example 274, 6-chloro-4-{4-[(3-fluoro-2-methoxyphenyl)methyl]piperazin-1-yl}-1-methyl-2-oxo-1,2-dihydro-1,5-naphthyridine-3-carbonitrile] was tested, and the IC50 (human DGKα [1]) was 1600 nM, the IC50 (human DGKζ [2]) was 5.4 µM and the IC50 (human DGKα [3]; [6]) was 670 nM. It also gave an IC50 (human DGKζ [4]) of 30 µM and an IC50 ([5]; Homo sapiens, Raji) of 72 nM.
Cn1c(=O)c(C#N)c(N2CCN(Cc3ccc(C(C)(C)C)cc3O)CC2)c2nc(Cl)ccc21 [Example 261, 4-{4-[(4-tert-butyl-2-hydroxyphenyl)methyl]piperazin-1-yl}-6-chloro-1-methyl-2-oxo-1,2-dihydro-1,5-naphthyridine-3-carbonitrile] showed an IC50 (human DGKα [1]) of 710 nM, an IC50 (human DGKζ [2]) of 10 µM and an IC50 (human DGKα [3]; [6]) of 430 nM. The IC50 (human DGKζ [4]) was > 240 µM and the IC50 ([5]; Homo sapiens, Raji) was 21 nM.
Work on CCn1ccc2c(CN3CCN(c4c(C#N)c(=O)n(C)c5ccc(Br)nc45)CC3)cccc21 [Example 225, 6-bromo-4-(4-((1-ethyl-1H-indol-4-yl)methyl)piperazin-1-yl)-1-methyl-2-oxo-1,2-dihydro-1,5-naphthyridine-3-carbonitrile] yielded an IC50 (human DGKα [1]) of 820 nM, an IC50 (human DGKζ [2]) of 1.3 µM and an IC50 (human DGKα [3]; [6]) of 390 nM. The IC50 (human DGKζ [4]) was 14 µM and the IC50 ([5]; Homo sapiens, Raji) was 70 nM.
Work on COc1ccc(CN2CCN(c3c(C#N)c(=O)n(C)c4ccc(Br)nc34)CC2)c(O)c1 [Example 295, 6-bromo-4-{4-[(2-hydroxy-4-methoxyphenyl)methyl]piperazin-1-yl}-1-methy-2-oxo-1,2-dihydro-1,5-naphthyridine-3-carbonitrile] yielded an IC50 (human DGKα [1]) of 160 nM, an IC50 (human DGKζ [2]) of 6.9 µM and an IC50 (human DGKα [3]; [6]) of 130 nM. It also gave an IC50 (human DGKζ [4]) of 55 µM and an IC50 ([5]; Homo sapiens, Raji) of 140 nM.
With CC(c1ccc(F)cc1)N1CCN(c2c(C#N)c(=O)n(CC#N)c3ccc(Br)nc23)CC1 (stereo not drawn) [Example 154, 6-bromo-1-(cyanomethyl)-4-(4-(1-(4-fluorophenyl)ethyl)piperazin-1-yl)-2-oxo-1,2-dihydro-1,5-naphthyridine-3-carbonitrile] the IC50 (human DGKα [1]) was 81000 nM, the IC50 (human DGKζ [2]) was 72 µM and the IC50 (human DGKα [3]; [6]) was 45000 nM. For the same compound, the IC50 (human DGKζ [4]) was > 240 µM and the IC50 ([5]; Homo sapiens, Raji) was 880 nM.
Compound Cn1c(=O)c(C#N)c(N2CCN(Cc3ccc(Cl)cc3O)CC2)c2nc(Cl)ccc21 [Example 288, 6-chloro-4-{4-[(4-chloro-2-hydroxyphenyl)methyl]piperazin-1-yl}-methyl-2-oxo-1,2-dihydro-1,5-naphthyridine-3-carbonitrile] has an IC50 (human DGKα [1]) of 33 nM, an IC50 (human DGKζ [2]) of 2.3 µM and an IC50 (human DGKα [3]; [6]) of 37 nM. The IC50 (human DGKζ [4]) was > 240 µM and the IC50 ([5]; Homo sapiens, Raji) was 100 nM.
With Cn1c(=O)c(C#N)c(N2CCN(Cc3cccc(F)c3)CC2)c2nc(Cl)ccc21 [Example 321, 6-chloro-4-{4-[(3-fluorophenyl)methyl]piperazin-1-yl}-1-methyl-2-oxo-1,2-dihydro-1,5-naphthyridine-3-carbonitrile] the IC50 (human DGKα [1]) was 340 nM, the IC50 (human DGKζ [2]) was 12 µM and the IC50 (human DGKα [3]; [6]) was 160 nM. The IC50 (human DGKζ [4]) was > 240 µM and the IC50 ([5]; Homo sapiens, Raji) was 310 nM.
Cn1c(=O)c(C#N)c(N2CCN(Cc3cccc(Cl)c3O)CC2)c2nc(Cl)ccc21 [Example 293, 6-chloro-4-{4-[(3-chloro-2-hydroxyphenyl)methyl]piperazin-1-yl}-1-methyl-2-oxo-1,2-dihydro-1,5-naphthyridine-3-carbonitrile] gave an IC50 (human DGKα [1]) of 600 nM, an IC50 (human DGKζ [2]) of 6 µM and an IC50 (human DGKα [3]; [6]) of 270 nM. For the same compound, the IC50 (human DGKζ [4]) was 58 µM and the IC50 ([5]; Homo sapiens, Raji) was 110 nM.
Cn1c(=O)c([N+](=O)[O-])c(N2CCN(C(c3ccc(F)cc3)c3ccccc3O)CC2)c2nc(C#N)ccc21 (single isomer, unassigned) [Example 99, 8-(4-((4-fluorophenyl)(2-hydroxyphenyl)methyl)piperazin-1-yl)-5-methyl-7-nitro-6-oxo-5,6-dihydro-1,5-naphthyridine-2-carbonitrile] showed an IC50 (human DGKα [1]) of 720 nM, an IC50 (human DGKζ [2]) of 0.04 µM and an IC50 (human DGKα [3]; [6]) of 410 nM. The IC50 (human DGKζ [4]) was 0.67 µM and the IC50 [5] was 9.4 nM.
Compound CCn1ccc2c(CN3CCN(c4c([N+](=O)[O-])c(=O)n(C)c5ccc(Br)nc45)CC3)cccc21 [Example 54, 6-bromo-4-(4-((1-ethyl-H-indol-4-yl)methyl)piperazin-1-yl)-1-methyl-3-nitro-1,5-naphthyridin-2(1H)-one] has an IC50 (human DGKα [1]) of 3100 nM, an IC50 (human DGKζ [2]) of 1.3 µM and an IC50 (human DGKα [3]; [6]) of 820 nM. It also gave an IC50 (human DGKζ [4]) of 7.3 µM and an IC50 ([5]; Homo sapiens, Raji) of 63 nM.
For Cc1ccc(CN2CCN(c3c(C#N)c(=O)n(C)c4ccc(Cl)nc34)CC2)c(O)c1 [Example 273, 6-chloro-4-{4-[(2-hydroxy-4-methylphenyl)methyl]piperazin-1-yl}-1-methyl-2-oxo-1,2-dihydro-1,5-naphthyridine-3-carbonitrile], the IC50 (human DGKα [1]) was 82 nM, the IC50 (human DGKζ [2]) was 7.8 µM and the IC50 (human DGKα [3]; [6]) was 18 nM. It also gave an IC50 (human DGKζ [4]) of 69 µM and an IC50 ([5]; Homo sapiens, Raji) of 64 nM.
Work on Cc1cccc(O)c1CN1CCN(c2c(C#N)c(=O)n(C)c3ccc(Br)nc23)CC1 [Example 259, 6-bromo-4-{4-[(2-hydroxy-6-methylphenyl)methyl]piperazin-yl}-1-methyl-2-oxo-1,2-dihydro-1,5-naphthyridine-3-carbonitrile] yielded an IC50 (human DGKα [1]) of 490 nM, an IC50 (human DGKζ [2]) of 4 µM and an IC50 (human DGKα [3]; [6]) of 420 nM. For the same compound, the IC50 (human DGKζ [4]) was 55 µM and the IC50 ([5]; Homo sapiens, Raji) was 16 nM.
Compound Cn1c(=O)c([N+](=O)[O-])c(N2CCN(C(c3ccccc3)c3ccccc3)CC2)c2nc(C#N)ccc21 [Example 223, 8-(4-benzhydrylpiperazin-1-yl)-5-methyl-7-nitro-6-oxo-5,6-dihydro-1,5-naphthyridine-2-carbonitrile] has an IC50 (human DGKα [1]) of 9900 nM, an IC50 (human DGKζ [2]) of 0.62 µM and an IC50 (human DGKα [3]; [6]) of 1900 nM. It also gave an IC50 (human DGKζ [4]) of 3.2 µM and an IC50 ([5]; Homo sapiens, Raji) of 42 nM.
Compound COc1ccc(O)c(CN2CCN(c3c(C#N)c(=O)n(C)c4ccc(Cl)nc34)CC2)c1 [Example 305, 6-chloro-4-{4-[(2-hydroxy-5-methoxyphenyl)methyl]piperazin-1-yl}-1-methyl-2-oxo-1,2-dihydro-1,5-naphthyridine-3-carbonitrile] has an IC50 (human DGKα [1]) of 490 nM, an IC50 (human DGKζ [2]) of 7.5 µM and an IC50 (human DGKα [3]; [6]) of 130 nM. For the same compound, the IC50 (human DGKζ [4]) was 62 µM and the IC50 ([5]; Homo sapiens, Raji) was 210 nM.
